Laboratory results published in the kinase profiling compilation of Christmann-Franck et al. (2016).

Legend:
Assay in all cases: KINOMEscan competition binding
Conditions in all cases: compound 10.0 µM
KDR (human) = KDR (human) (UniProt P35968)
MARK4 (human) = MARK4 (human) (UniProt Q96L34)
ACVR1 (human) = ACVR1 (human) (UniProt Q04771)
PIP5K1A (human) = PIP5K1A (human) (UniProt Q99755)
ERBB3 (human) = ERBB3 (human) (UniProt P21860)
ITK (human) = ITK (human) (UniProt Q08881)
EIF2AK2 (human) = EIF2AK2 (human) (UniProt P19525)
STK3 (human) = STK3 (human) (UniProt Q13188)
CDKL3 (human) = CDKL3 (human) (UniProt Q8IVW4)
STK11 (human) = STK11 (human) (UniProt Q15831)
MAPK3 (human) = MAPK3 (human) (UniProt P27361)
STK35 (human) = STK35 (human) (UniProt Q8TDR2)
STK38 (human) = STK38 (human) (UniProt Q15208)
DDR1 (human) = DDR1 (human) (UniProt Q08345)
IKBKB (human) = IKBKB (human) (UniProt O14920)
MAP3K12 (human) = MAP3K12 (human) (UniProt Q12852)
SBK1 (human) = SBK1 (human) (UniProt Q52WX2)
SRC (human) = SRC (human) (UniProt P12931)
DMPK (human) = DMPK (human) (UniProt Q09013)
MKNK1 (human) = MKNK1 (human) (UniProt Q9BUB5)
PAK4 (human) = PAK4 (human) (UniProt O96013)
LATS1 (human) = LATS1 (human) (UniProt O95835)
TNK1 (human) = TNK1 (human) (UniProt Q13470)
ROCK1 (human) = ROCK1 (human) (UniProt Q13464)
LIMK2 (human) = LIMK2 (human) (UniProt P53671)
CSNK1E (human) = CSNK1E (human) (UniProt P49674)
PAK1 (human) = PAK1 (human) (UniProt Q13153)
MATK (human) = MATK (human) (UniProt P42679)
NEK9 (human) = NEK9 (human) (UniProt Q8TD19)
TAOK3 (human) = TAOK3 (human) (UniProt Q9H2K8)
BRSK1 (human) = BRSK1 (human) (UniProt Q8TDC3)
IRAK1 (human) = IRAK1 (human) (UniProt P51617)
FGFR3 (human) = FGFR3 (human) (UniProt P22607)
ANKK1 (human) = ANKK1 (human) (UniProt Q8NFD2)
INSR (human) = INSR (human) (UniProt P06213)
Sequence of INSR (human) (P06213 whole entry, looked up): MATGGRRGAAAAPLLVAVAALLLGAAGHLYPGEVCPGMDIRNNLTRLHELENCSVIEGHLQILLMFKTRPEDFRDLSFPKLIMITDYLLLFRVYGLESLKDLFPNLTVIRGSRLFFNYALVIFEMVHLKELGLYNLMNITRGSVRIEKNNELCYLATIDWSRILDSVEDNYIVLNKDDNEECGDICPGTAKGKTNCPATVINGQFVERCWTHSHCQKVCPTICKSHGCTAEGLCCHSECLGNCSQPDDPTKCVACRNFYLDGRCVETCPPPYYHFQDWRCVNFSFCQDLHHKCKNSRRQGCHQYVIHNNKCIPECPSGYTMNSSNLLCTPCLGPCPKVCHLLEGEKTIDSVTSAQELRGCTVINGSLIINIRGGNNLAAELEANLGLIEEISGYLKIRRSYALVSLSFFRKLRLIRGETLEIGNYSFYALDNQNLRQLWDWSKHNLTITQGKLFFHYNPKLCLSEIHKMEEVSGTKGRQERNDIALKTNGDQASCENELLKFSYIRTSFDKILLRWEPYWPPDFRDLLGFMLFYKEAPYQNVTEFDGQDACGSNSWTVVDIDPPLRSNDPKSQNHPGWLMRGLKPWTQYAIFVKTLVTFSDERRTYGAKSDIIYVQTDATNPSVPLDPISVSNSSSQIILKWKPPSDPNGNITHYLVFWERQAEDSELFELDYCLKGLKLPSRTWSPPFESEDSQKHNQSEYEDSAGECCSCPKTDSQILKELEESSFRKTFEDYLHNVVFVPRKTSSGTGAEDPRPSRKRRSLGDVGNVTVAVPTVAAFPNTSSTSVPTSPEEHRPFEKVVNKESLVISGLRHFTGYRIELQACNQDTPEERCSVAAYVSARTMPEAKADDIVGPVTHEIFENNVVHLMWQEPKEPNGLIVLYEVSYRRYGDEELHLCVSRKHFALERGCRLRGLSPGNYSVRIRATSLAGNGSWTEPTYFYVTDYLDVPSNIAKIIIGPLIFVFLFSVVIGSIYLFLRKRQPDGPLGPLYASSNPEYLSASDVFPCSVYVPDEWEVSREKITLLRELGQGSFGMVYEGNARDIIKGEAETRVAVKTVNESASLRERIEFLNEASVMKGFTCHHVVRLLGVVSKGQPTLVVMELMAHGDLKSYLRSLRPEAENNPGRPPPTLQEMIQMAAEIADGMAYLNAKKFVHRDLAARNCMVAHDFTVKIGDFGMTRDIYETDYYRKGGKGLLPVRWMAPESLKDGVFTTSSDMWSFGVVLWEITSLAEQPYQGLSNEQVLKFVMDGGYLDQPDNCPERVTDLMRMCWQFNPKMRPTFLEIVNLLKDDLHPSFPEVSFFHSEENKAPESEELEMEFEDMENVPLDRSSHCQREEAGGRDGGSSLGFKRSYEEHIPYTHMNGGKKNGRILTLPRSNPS

Sequence of ITK (human) (Q08881 whole entry, looked up): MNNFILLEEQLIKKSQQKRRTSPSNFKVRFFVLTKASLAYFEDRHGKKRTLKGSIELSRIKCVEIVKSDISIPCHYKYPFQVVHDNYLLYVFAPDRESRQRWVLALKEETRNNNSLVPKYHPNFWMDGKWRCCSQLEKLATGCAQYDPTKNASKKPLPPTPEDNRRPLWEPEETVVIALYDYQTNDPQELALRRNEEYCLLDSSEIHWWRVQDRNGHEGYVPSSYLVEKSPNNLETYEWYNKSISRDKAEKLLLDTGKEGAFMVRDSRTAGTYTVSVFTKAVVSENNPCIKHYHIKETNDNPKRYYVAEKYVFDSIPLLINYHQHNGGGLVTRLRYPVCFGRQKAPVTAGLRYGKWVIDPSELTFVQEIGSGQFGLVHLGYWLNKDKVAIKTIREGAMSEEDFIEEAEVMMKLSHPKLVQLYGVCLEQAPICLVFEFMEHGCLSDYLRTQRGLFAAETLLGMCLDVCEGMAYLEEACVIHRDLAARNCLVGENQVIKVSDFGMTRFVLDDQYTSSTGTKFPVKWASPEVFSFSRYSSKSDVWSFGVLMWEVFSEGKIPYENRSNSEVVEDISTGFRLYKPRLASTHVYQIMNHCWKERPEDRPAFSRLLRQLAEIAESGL
Sequence of STK11 (human) (Q15831 whole entry, looked up): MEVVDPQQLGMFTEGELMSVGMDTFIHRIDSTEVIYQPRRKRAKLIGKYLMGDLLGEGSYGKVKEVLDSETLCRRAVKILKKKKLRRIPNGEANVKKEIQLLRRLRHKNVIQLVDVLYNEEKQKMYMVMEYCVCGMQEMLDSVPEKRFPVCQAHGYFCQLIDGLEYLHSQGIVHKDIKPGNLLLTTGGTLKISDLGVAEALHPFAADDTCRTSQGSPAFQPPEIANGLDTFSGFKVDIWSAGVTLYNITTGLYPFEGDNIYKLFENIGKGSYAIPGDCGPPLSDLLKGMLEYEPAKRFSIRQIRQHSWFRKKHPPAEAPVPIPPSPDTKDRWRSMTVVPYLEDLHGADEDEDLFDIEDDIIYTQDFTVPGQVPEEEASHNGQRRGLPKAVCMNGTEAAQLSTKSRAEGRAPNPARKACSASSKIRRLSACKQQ
Sequence of CSNK1E (human) (P49674 whole entry, looked up): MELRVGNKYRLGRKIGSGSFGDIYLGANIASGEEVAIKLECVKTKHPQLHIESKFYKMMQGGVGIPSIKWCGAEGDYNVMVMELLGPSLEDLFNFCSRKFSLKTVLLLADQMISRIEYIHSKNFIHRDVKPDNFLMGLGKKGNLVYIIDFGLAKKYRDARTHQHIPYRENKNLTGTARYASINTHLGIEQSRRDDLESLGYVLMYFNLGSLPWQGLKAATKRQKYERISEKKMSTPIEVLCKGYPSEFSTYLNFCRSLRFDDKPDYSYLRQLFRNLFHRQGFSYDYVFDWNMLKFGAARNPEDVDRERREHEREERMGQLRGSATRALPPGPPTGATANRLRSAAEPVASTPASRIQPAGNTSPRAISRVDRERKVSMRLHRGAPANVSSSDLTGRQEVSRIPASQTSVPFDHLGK
Sequence of PAK1 (human) (Q13153 whole entry, looked up): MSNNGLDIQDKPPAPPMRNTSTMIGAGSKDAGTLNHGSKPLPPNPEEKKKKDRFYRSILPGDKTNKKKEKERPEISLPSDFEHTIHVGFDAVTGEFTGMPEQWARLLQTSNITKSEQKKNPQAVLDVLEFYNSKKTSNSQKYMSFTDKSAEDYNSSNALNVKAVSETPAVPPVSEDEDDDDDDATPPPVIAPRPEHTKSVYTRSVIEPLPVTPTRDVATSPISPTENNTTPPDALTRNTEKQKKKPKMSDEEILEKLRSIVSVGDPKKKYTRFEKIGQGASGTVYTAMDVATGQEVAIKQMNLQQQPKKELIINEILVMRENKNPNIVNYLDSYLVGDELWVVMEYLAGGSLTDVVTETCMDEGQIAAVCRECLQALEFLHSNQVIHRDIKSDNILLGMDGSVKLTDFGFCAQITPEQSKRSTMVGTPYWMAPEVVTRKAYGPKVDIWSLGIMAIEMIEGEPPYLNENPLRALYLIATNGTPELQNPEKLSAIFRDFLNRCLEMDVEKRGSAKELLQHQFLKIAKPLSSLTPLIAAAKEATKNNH
Sequence of IKBKB (human) (O14920 whole entry, looked up): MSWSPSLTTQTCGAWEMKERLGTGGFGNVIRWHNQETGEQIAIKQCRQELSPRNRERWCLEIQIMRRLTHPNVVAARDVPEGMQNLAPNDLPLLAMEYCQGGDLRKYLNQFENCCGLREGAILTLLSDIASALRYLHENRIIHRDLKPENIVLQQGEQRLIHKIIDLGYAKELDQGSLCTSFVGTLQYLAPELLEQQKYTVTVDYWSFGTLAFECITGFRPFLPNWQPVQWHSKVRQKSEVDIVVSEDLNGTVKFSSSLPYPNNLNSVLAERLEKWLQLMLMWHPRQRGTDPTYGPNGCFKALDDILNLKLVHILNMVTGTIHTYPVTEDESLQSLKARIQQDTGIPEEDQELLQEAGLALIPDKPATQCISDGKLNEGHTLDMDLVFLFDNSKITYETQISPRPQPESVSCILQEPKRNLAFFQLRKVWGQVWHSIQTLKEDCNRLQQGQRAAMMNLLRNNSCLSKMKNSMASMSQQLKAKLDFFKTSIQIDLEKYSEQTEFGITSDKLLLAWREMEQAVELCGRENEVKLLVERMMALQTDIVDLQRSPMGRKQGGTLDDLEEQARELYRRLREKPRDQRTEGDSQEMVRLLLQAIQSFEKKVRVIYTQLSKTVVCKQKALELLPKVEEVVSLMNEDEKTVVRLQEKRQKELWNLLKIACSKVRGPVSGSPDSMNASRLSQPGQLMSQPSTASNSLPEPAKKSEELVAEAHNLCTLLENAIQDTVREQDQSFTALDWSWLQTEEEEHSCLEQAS
Sequence of DMPK (human) (Q09013 whole entry, looked up): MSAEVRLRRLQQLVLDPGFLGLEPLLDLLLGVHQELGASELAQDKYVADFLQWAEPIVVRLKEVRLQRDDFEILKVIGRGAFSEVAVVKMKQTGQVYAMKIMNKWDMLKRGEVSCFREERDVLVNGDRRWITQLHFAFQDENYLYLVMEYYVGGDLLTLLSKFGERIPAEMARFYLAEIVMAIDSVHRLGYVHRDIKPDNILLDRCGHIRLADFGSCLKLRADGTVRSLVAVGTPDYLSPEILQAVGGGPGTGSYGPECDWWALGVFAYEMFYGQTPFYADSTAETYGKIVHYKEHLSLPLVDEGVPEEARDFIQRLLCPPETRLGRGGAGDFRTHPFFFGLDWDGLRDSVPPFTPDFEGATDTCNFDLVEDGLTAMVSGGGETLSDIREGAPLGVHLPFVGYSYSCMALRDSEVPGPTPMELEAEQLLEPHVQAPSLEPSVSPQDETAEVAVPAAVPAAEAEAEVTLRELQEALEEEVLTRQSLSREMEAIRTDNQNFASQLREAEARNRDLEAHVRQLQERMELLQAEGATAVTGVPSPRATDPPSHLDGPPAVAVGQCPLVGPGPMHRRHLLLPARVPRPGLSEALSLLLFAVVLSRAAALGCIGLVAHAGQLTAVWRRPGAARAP

kinase still bound, per cent of control (KDR (human)) [%]	kinase still bound, per cent of control (MARK4 (human)) [%]	kinase still bound, per cent of control (ACVR1 (human)) [%]	kinase still bound, per cent of control (PIP5K1A (human)) [%]	kinase still bound, per cent of control (ITK (human)) [%]	kinase still bound, per cent of control (EIF2AK2 (human)) [%]	kinase still bound, per cent of control (STK3 (human)) [%]	kinase still bound, per cent of control (STK11 (human)) [%]	kinase still bound, per cent of control (MAPK3 (human)) [%]	kinase still bound, per cent of control (DDR1 (human)) [%]	kinase still bound, per cent of control (MAP3K12 (human)) [%]	kinase still bound, per cent of control (SRC (human)) [%]	kinase still bound, per cent of control (DMPK (human)) [%]	kinase still bound, per cent of control (MKNK1 (human)) [%]	kinase still bound, per cent of control (PAK4 (human)) [%]	kinase still bound, per cent of control (LATS1 (human)) [%]	kinase still bound, per cent of control (TNK1 (human)) [%]	kinase still bound, per cent of control (LIMK2 (human)) [%]	kinase still bound, per cent of control (CSNK1E (human)) [%]	kinase still bound, per cent of control (PAK1 (human)) [%]	Compound	other results
100	100	100	100	100	100	100	100	100	100	100	100	100	100	100	100	7.8	100	100	100	CCOc1cc(N2CCC(O)CC2)ccc1Nc1ncc2c(n1)N(C)c1ccccc1C(=O)N2C	kinase still bound, per cent of control (ERBB3 (human)): 100%; kinase still bound, per cent of control (CDKL3 (human)): 100%; kinase still bound, per cent of control (STK35 (human)): 100%; kinase still bound, per cent of control (STK38 (human)): 100%; kinase still bound, per cent of control (IKBKB (human)): 100%; kinase still bound, per cent of control (SBK1 (human)): 100%; kinase still bound, per cent of control (ROCK1 (human)): 100%; kinase still bound, per cent of control (MATK (human)): 100%; kinase still bound, per cent of control (NEK9 (human)): 100%; kinase still bound, per cent of control (TAOK3 (human)): 100%; kinase still bound, per cent of control (BRSK1 (human)): 100%; kinase still bound, per cent of control (IRAK1 (human)): 100%; kinase still bound, per cent of control (FGFR3 (human)): 100%; kinase still bound, per cent of control (ANKK1 (human)): 100%; kinase still bound, per cent of control (INSR (human)): 100%
100	100	100	100	100	100	100	100	100	0.1	100	2.4	100	100	100	100	100	100	100	100	Cc1cn(-c2cc(C(=O)Nc3ccc(C)c(NC(=O)c4ccno4)c3)cc(C(F)(F)F)c2)cn1	kinase still bound, per cent of control (ERBB3 (human)): 100%; kinase still bound, per cent of control (CDKL3 (human)): 100%; kinase still bound, per cent of control (STK35 (human)): 100%; kinase still bound, per cent of control (STK38 (human)): 100%; kinase still bound, per cent of control (IKBKB (human)): 100%; kinase still bound, per cent of control (SBK1 (human)): 100%; kinase still bound, per cent of control (ROCK1 (human)): 100%; kinase still bound, per cent of control (MATK (human)): 100%; kinase still bound, per cent of control (NEK9 (human)): 100%; kinase still bound, per cent of control (TAOK3 (human)): 100%; kinase still bound, per cent of control (BRSK1 (human)): 100%; kinase still bound, per cent of control (IRAK1 (human)): 100%; kinase still bound, per cent of control (FGFR3 (human)): 100%; kinase still bound, per cent of control (ANKK1 (human)): 100%; kinase still bound, per cent of control (INSR (human)): 100%
100	100	100	100	0.25	100	100	100	100	100	30	1.2	100	100	100	100	100	100	100	100	COc1cc(C)c(Sc2cnc(NC(=O)c3ccc(CNC(C)C(C)C)cc3)s2)cc1C(=O)N1CCN(C(C)=O)CC1 (stereo unspecified)	kinase still bound, per cent of control (STK35 (human)): 100%; kinase still bound, per cent of control (IKBKB (human)): 100%; kinase still bound, per cent of control (NEK9 (human)): 100%; kinase still bound, per cent of control (TAOK3 (human)): 3.6%; kinase still bound, per cent of control (BRSK1 (human)): 100%; kinase still bound, per cent of control (FGFR3 (human)): 100%; kinase still bound, per cent of control (ANKK1 (human)): 100%; kinase still bound, per cent of control (INSR (human)): 5.1%
100	100	100	100	100	100	100	100	100	100	100	23	100	100	100	100	3.8	100	34	100	COc1cc(N2CCC(C(N)=O)CC2)ccc1Nc1nc(N)c(Cl)c(Nc2ccccc2S(=O)(=O)C(C)C)n1	kinase still bound, per cent of control (STK35 (human)): 100%; kinase still bound, per cent of control (IKBKB (human)): 100%; kinase still bound, per cent of control (NEK9 (human)): 100%; kinase still bound, per cent of control (TAOK3 (human)): 100%; kinase still bound, per cent of control (BRSK1 (human)): 100%; kinase still bound, per cent of control (FGFR3 (human)): 100%; kinase still bound, per cent of control (ANKK1 (human)): 100%; kinase still bound, per cent of control (INSR (human)): 0.05%
4.5	100	100	100	100	100	100	100	100	0.55	100	0.15	100	100	100	100	1.6	0	100	100	COc1ccc(N(C(=O)Oc2cc(C(=O)Nc3cccc(C(F)(F)F)c3)ccc2C)c2ccnc(Nc3ccc(N4CCN(C)CC4)cc3)n2)c(OC)c1	kinase still bound, per cent of control (NEK9 (human)): 100%; kinase still bound, per cent of control (BRSK1 (human)): 100%; kinase still bound, per cent of control (FGFR3 (human)): 3.7%; kinase still bound, per cent of control (ANKK1 (human)): 100%; kinase still bound, per cent of control (INSR (human)): 100%
